From patent US20230117470A1, “SUBSTITUTED PYRAZOLE COMPOUNDS AS TOLL RECEPTOR INHIBITORS” (BRISTOL-MYERS SQUIBB COMPANY, priority 2019, published 2023)

Legend:
Type in all cases: cell-based
human TLR7 = biological target: T1, human TLR7 (Homo sapiens, UniProt Q9NYK1); assay: TLR7 inhibition reporter assay (HEK-Blue cells, SEAP reporter, gardiquimod stimulation); settings: HEK-Blue cells overexpressing human TLR7, SEAP reporter, gardiquimod 7.5 μM
T1 construct: host or cells: HEK-Blue cells
T1 sequence (Q9NYK1 27-1049): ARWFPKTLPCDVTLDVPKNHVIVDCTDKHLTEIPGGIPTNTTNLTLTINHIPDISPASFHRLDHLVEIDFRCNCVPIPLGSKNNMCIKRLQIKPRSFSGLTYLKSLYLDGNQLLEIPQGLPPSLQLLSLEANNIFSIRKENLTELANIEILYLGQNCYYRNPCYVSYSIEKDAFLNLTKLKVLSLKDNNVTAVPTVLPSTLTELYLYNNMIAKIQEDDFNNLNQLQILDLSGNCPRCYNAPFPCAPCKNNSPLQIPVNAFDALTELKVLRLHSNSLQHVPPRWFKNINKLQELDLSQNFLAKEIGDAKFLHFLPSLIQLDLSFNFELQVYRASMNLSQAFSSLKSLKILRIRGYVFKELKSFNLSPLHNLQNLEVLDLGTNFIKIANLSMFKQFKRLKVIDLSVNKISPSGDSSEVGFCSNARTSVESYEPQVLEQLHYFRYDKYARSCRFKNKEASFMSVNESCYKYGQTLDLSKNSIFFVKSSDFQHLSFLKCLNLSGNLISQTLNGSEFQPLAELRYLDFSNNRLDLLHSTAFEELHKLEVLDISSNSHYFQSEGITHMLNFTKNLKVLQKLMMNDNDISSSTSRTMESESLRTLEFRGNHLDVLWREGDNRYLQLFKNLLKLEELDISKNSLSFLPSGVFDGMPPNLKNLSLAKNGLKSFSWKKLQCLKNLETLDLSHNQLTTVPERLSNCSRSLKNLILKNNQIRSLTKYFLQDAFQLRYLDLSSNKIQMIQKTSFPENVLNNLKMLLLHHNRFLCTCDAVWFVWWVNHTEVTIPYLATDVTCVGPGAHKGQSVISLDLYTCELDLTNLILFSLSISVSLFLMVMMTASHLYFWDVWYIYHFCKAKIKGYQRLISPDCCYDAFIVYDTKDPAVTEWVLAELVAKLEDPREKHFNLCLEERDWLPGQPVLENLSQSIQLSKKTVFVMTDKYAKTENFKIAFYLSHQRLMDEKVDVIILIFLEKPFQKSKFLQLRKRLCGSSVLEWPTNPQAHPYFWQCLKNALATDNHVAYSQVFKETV
Procedure, shortened: (§1)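 30 min RT cpd pre-incubation (0.05 nM–50 μM final dose response) → agonist: gardiquimod 7.5 μM / R848 15.9 μM / ODN2006 5 nM for TLR7/8/9 resp. → 22 h, 37° C → SEAP via detection medium. % inhibition vs agonist+DMSO and reference inhibitor controls.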

human TLR8 = biological target: T2, human TLR8 (Homo sapiens, UniProt Q9NR97); assay: TLR8 inhibition reporter assay (HEK-Blue cells, SEAP reporter, R848 stimulation); settings: HEK-Blue cells overexpressing human TLR8, SEAP reporter, R848 15.9 μM
T2 construct: host or cells: HEK-Blue cells
T2 sequence (Q9NR97 27-1041): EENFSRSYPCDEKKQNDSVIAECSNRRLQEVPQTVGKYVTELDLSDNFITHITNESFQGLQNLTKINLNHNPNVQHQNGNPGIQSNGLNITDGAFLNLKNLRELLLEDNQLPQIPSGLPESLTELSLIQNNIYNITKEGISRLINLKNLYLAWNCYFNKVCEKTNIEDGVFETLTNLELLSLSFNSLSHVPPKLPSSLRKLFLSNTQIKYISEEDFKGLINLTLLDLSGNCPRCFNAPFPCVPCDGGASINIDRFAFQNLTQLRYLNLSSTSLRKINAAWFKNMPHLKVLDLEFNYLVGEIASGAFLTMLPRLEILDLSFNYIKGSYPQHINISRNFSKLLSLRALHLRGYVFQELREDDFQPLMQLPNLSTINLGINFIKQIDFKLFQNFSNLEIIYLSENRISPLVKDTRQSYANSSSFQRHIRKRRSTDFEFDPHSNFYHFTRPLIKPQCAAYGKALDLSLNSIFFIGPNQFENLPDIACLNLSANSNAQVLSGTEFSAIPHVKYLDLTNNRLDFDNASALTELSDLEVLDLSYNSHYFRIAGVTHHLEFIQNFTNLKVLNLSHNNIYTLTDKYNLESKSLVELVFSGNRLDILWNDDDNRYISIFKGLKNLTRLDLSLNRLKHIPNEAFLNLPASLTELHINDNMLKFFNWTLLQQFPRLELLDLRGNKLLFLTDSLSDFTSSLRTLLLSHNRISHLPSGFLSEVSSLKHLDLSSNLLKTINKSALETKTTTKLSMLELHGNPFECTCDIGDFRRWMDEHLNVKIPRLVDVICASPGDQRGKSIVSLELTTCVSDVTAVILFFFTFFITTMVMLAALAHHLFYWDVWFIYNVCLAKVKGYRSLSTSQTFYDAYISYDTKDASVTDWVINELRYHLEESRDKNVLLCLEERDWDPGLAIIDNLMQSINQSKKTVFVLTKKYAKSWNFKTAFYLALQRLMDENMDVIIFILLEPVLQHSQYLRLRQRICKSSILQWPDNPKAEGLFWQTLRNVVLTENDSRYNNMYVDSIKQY
Procedure, shortened: as §1

human TLR9 = biological target: T3, human TLR9 (Homo sapiens, UniProt Q9NR96); assay: TLR9 inhibition reporter assay (HEK-Blue cells, SEAP reporter, ODN2006 stimulation); settings: HEK-Blue cells overexpressing human TLR9, SEAP reporter, ODN2006 5 nM
T3 construct: host or cells: HEK-Blue cells
T3 sequence (Q9NR96 26-1032): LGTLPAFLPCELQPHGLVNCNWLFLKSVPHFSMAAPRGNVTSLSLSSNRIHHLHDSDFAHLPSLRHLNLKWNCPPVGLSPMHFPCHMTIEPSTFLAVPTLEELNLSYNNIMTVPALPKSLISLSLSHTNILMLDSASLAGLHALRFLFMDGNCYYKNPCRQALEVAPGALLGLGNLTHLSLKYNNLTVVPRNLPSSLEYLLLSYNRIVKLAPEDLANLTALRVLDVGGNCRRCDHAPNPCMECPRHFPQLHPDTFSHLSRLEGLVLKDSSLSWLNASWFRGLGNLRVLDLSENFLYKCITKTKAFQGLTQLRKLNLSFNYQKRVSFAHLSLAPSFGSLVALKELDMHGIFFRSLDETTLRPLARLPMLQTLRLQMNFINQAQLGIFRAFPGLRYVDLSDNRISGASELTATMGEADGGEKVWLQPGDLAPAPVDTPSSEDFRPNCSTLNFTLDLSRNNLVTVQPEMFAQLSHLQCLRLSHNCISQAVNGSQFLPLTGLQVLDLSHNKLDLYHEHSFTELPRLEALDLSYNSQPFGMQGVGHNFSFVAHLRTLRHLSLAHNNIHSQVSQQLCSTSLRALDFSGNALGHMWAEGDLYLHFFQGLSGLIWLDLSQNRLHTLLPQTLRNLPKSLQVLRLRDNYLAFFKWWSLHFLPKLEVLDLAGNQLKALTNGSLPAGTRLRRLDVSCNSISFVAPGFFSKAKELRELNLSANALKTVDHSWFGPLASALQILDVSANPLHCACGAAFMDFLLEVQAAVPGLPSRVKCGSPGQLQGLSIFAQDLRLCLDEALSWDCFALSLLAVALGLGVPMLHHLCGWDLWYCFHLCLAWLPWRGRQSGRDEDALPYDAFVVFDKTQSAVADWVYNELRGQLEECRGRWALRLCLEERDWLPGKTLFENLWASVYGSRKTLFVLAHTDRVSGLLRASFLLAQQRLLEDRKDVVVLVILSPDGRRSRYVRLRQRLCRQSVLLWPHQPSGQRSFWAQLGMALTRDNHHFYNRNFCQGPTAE
Procedure, shortened: as §1

SMILES | IC50 (human TLR7) | IC50 (human TLR8) | IC50 (human TLR9)
Cc1cc(-c2c(C(C)C)c(C(=O)NC3CCN(C(C)C)CC3)nn2C)cn2ncnc12 [Example 188, 4-isopropyl-N-(1-isopropylpiperidin-4-yl)-1-methyl-5-(8-methyl-[1,2,4]triazolo[1,5-a]pyridin-6-yl)-1H-pyrazole-3-carboxamide] | 0.71 nM | 0.58 nM | 10800 nM
Cc1cc(-c2[nH]nc(-c3ccc4c(c3)CCN(CC(N)=O)C4)c2C(C)C)cn2ncnc12 [Example 272] | 137 nM | 122 nM | > 50000 nM
Cc1cc(-c2[nH]nc(-c3ccc(C4CN(C(C)C)C4)cc3)c2C(C)C)cn2ncnc12 [Example 327] | 7.5 nM | 7.11 nM | 15800 nM
Cc1cc(-c2[nH]nc(-c3ccc(C4CCN(C5COC5)CC4)nc3)c2C(C)C)cn2ncnc12 [Example 362] | > 3130 nM | > 3130 nM | 25100 nM
Cc1cc(-c2[nH]nc(C(=O)N3CCN(CCC#N)CC3)c2C(C)C)cn2ncnc12 [Example 19] | 1.4 nM | 12 nM | 5940 nM
Cc1cc(-c2[nH]nc(-c3ccc(N)cc3)c2C(C)C)cn2ncnc12 [Example 233] | 2.3 nM | 0.59 nM | > 50000 nM
CNC(=O)CN1CCC(c2cnc(-c3n[nH]c(-c4cc(OC)c5ncnn5c4)c3C(C)C)cn2)CC1 [Example 400] | 13.5 nM | 15.9 nM | 9250 nM
Cc1cc(-c2[nH]nc(-c3ccc(C4CN(C(=O)CN(C)C)C4)cc3)c2C(C)C)cn2ncnc12 [Example 334, 2-(dimethylamino)-1-(3-(4-(4-isopropyl-5-(8-methyl-[1,2,4]triazolo[1,5-a]pyridin-6-yl)-1H-pyrazol-3-yl)phenyl)azetidin-1-yl)ethan-1-one] | 13.6 nM | 3.19 nM | 4830 nM
CCNc1ccc2nc(-c3n[nH]c(-c4cc(C)c5ncnn5c4)c3C(C)C)sc2c1 [Example 257] | 13.6 nM | 0.86 nM | 34900 nM
CCN1CC(c2ccc(-c3n[nH]c(-c4cc(OC)c5ncnn5c4)c3C(C)C)cc2)C1 [Example 329] | 414 nM | 60.3 nM | 14700 nM
Cc1cc(-c2[nH]nc(-c3ccc4c(c3)CCN(C)C4)c2C(C)C)cn2ncnc12 [Example 235, 6-(4-isopropyl-5-(8-methyl-[1,2,4]triazolo[1,5-a]pyridin-6-yl)-1H-pyrazol-3-yl)-2-methyl-1,2,3,4-tetrahydroisoquinoline] | 1.05 nM | 1.01 nM | 16600 nM
CCCN1CCC(NC(=O)c2n[nH]c(-c3cc(OC)c4ncnn4c3)c2CC(F)(F)F)CC1 [Example 195, 5-(8-methoxy-[1,2,4]triazolo[1,5-a]pyridin-6-yl)-N-(1-propylpiperidin-4-yl)-4-(2,2,2-trifluoroethyl)-1H-pyrazole-3-carboxamide] | 2.24 nM | 1.66 nM | 5500 nM
Cc1cc(-c2[nH]nc(CNC3CCN(C(C)C)CC3)c2C(C)C)cn2ncnc12 [Example 186] | 1.59 nM | 0.21 nM | 5920 nM
Cc1cc(-c2[nH]nc(C(=O)NC3CCN(CCC(C)(C)C)CC3)c2C(C)C)cn2ncnc12 [Example 75] | 0.89 nM | 7.55 nM | 3390 nM
CCN1CCC(c2ccc(-c3n[nH]c(-c4cc(C)c5ncnn5c4)c3C(C)C)cc2)CC1 [Example 310] | 1.45 nM | 0.43 nM | 19300 nM
Cc1cc(-c2[nH]nc(-c3ccc4c(c3)CCNC4)c2C(C)C)cc(C)n1 [Example 278, 6-(5-(2,6-dimethylpyridin-4-yl)-4-isopropyl-1H-pyrazol-3-yl)-1,2,3,4-tetrahydroisoquinoline] | 1.43 nM | 0.33 nM | 10800 nM
Cc1cc(-c2[nH]nc(-c3nc4c(s3)CCNC4)c2C(C)C)cn2ncnc12 [Example 221] | 3.08 nM | 33.3 nM | > 50000 nM
Cc1cc(-c2[nH]nc(-c3cccc(NC(C)C)c3)c2C(C)C)cn2ncnc12 [Example 242] | 47.1 nM | 16.1 nM | > 50000 nM
Cc1cc(-c2[nH]nc(C(=O)NC3CCN(CC4CC4)CC3)c2C(C)C)cn2ncnc12 [Example 73] | 0.96 nM | 12.7 nM | 4280 nM
Cc1noc(C)c1CN1CCC(NC(=O)c2n[nH]c(-c3cc(C)c4ncnn4c3)c2C(C)C)CC1 [Example 78] | 0.59 nM | 1.64 nM | 2870 nM
Cc1cc(-c2[nH]nc(-c3ncc(C4CCNCC4)cn3)c2C(C)C)cn2ncnc12 [Example 341] | 7.86 nM | 9 nM | 16500 nM
Cc1cc(-c2[nH]nc(-c3ncc4c(n3)CCN(C)C4)c2C(C)C)cn2ncnc12 [Example 248] | 8.33 nM | 12 nM | 14000 nM
